These results are taken from patent publication US11033539B2, “Compounds of formulas (VII), (VIII), (IX), (XI), (XII), (XIII), and (XIV) as muscarinic receptor 4(M4) antagonists for treating neurological diseases” (Neurocrine Biosciences, Inc., priority 2015, dated 2021).

In experiment [1] the target is human M3 receptor (Homo sapiens (Human), UniProt P20309). Description: Radioligand (tritiated N-methylscopolamine) binding assay, M3. To be noted: CHO cell membranes expressing human M3; 1.5 nM tritiated N-methylscopolamine; 90 min, 37° C.; read-out: Ki against M3 receptor (Table 21, M3). The method in brief: (§1)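 Ki from displacement of 1.5 nM [3H]N-methylscopolamine on membranes of CHO cells expressing each human receptor. Twelve compound concentrations (10 μM to […]), 90 min at 37° C in 50 mM HEPES, 100 mM NaCl, 5 mM MgCl2, 1 mM EDTA, pH 7.4. Bound ligand was captured by PEI-treated glass-fiber filtration and counted.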

The target of experiment [2] is human M5 receptor (Homo sapiens (Human), UniProt P08912). Description: Radioligand (tritiated N-methylscopolamine) binding assay, M5. An outline of the steps:
as §1

In experiment [3] the target is human M4 receptor (Homo sapiens (Human), UniProt P08173). The experiment in a line: Radioligand (tritiated N-methylscopolamine) binding assay, M4. To be noted: Ki against the M4 receptor; membranes from CHO cells expressing human M4; tritiated N-methylscopolamine 1.5 nM; read-out: Ki. The method in brief:
as §1

The target of experiment [4] is human M2 receptor (Homo sapiens (Human), UniProt P08172). Description: Radioligand (tritiated N-methylscopolamine) binding assay, M2. The method in brief:
as §1

Experiment [5] concerns the target human M1 receptor (Homo sapiens (Human), UniProt P11229). The experiment in a line: Radioligand (tritiated N-methylscopolamine) binding assay, M1. The method in brief:
as §1

Setting [6] is: CHO cell membranes expressing human M5, 1.5 nM tritiated N-methylscopolamine, 90 min, 37° C., read-out: Ki against M5 receptor (Table 21, M5).
Where [7] appears, read: CHO cell membranes expressing human M2, 1.5 nM tritiated N-methylscopolamine, 90 min, 37° C., read-out: Ki against M2 receptor (Table 21, M2).
Setting [8] is: CHO cell membranes expressing human M1, 1.5 nM tritiated N-methylscopolamine, 90 min, 37° C., read-out: Ki against M1 receptor (Table 21, M1).

The structures appear in SMILES notation. Where two headings read alike, the source gives them in different places.

Sequence of human M5 receptor (P08912 whole entry): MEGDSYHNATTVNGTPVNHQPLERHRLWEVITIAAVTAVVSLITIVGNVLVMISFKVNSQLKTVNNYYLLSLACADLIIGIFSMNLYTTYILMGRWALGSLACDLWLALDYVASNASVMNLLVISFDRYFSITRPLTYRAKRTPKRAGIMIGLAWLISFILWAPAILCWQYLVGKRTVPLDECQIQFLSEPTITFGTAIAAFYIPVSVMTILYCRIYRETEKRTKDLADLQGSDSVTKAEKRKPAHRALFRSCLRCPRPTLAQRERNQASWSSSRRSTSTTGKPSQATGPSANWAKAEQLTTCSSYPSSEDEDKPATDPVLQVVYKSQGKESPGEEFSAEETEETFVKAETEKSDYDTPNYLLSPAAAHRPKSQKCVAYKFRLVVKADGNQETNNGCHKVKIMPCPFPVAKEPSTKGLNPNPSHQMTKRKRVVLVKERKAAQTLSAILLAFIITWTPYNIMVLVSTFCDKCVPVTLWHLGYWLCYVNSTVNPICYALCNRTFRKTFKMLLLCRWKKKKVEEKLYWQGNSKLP
Sequence of human M2 receptor (P08172 whole entry): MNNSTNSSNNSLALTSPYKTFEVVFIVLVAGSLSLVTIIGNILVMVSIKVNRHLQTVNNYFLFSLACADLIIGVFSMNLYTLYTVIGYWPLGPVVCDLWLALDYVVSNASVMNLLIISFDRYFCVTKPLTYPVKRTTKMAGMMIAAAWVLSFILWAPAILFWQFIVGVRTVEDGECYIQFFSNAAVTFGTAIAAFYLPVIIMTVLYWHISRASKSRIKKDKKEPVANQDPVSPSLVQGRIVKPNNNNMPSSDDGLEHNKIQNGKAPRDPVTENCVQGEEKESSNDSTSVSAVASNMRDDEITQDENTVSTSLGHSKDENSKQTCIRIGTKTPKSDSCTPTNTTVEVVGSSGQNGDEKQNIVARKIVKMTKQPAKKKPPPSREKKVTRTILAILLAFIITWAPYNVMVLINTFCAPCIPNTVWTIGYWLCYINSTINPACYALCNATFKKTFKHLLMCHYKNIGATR
Sequence of human M4 receptor (P08173 whole entry): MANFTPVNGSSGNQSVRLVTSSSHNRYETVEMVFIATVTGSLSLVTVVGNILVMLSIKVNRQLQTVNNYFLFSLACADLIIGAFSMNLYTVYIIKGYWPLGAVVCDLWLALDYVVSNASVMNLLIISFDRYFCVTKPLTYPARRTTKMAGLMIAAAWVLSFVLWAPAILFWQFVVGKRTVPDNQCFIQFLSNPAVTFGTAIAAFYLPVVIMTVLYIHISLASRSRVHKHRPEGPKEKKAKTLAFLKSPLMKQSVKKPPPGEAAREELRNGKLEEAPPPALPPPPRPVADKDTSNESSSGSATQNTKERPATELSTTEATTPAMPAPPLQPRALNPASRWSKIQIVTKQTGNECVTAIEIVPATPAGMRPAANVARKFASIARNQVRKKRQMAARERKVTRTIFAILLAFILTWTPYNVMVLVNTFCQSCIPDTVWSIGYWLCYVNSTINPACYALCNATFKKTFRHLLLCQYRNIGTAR
Sequence of human M3 receptor (P20309 whole entry): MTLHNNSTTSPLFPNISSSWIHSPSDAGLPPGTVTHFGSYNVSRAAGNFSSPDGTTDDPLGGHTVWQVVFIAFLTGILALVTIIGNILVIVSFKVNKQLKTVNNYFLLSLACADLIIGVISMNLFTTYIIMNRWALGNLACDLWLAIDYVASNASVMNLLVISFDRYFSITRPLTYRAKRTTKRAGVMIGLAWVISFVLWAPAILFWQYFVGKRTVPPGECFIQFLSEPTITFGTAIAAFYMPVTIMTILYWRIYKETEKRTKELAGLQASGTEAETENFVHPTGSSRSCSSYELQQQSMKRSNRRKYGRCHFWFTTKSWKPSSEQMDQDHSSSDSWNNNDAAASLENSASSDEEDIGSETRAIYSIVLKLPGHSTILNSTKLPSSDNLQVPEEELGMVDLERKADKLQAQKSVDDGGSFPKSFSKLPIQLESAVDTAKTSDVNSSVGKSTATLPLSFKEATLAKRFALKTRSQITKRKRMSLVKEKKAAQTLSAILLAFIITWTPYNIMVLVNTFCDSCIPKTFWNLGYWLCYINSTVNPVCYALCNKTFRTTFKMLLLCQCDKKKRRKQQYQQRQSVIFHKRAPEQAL
Sequence of human M1 receptor (P11229 whole entry): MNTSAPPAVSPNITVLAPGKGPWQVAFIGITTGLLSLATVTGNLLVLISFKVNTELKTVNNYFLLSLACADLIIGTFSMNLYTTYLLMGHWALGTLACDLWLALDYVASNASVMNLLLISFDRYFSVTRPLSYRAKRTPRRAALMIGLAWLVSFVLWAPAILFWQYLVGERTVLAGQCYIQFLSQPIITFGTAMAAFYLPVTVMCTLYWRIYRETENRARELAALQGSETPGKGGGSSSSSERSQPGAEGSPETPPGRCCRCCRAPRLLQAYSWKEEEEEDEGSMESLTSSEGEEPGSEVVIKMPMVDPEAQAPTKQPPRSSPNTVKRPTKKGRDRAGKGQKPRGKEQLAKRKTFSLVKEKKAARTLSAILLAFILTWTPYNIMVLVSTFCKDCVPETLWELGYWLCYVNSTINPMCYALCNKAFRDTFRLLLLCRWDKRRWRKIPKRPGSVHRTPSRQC

As usually defined, the Ki is the equilibrium dissociation constant of an inhibitor or competing ligand from its target. With `C[C@@H]1CN(c2cnc(C(F)(F)F)nc2)CCN1C(=O)NCCC1CCN(Cc2ccccc2)CC1` [4-79, (2R)-N-[2-(1-benzylpiperidin-4-yl)ethyl]-2-methyl-4-[2-(trifluoromethyl)pyrimidin-5-yl]piperazine-1-carboxamide], the Ki in experiment [1] is > 1000 nM; in experiment [2] (setting [6]), > 1000 nM; in experiment [3] it was < 10 nM; in experiment [4] (setting [7]) it was 10 to 100 nM; in experiment [5] (setting [8]), 100 to 1000 nM.
Regarding `O=C(NCCC1CCN(Cc2ccccc2)CC1)N1CCC(c2ccc(C(F)(F)F)cc2)CC1` [8-1, N-[2-(1-benzylpiperidin-4-yl)ethyl]-4-[4-(trifluoromethyl)phenyl]piperidine-1-carboxamide], the Ki in experiment [1] was 100 to 1000 nM; in experiment [2] (setting [6]) it was 100 to 1000 nM; in experiment [3] it was < 10 nM; in experiment [4] (setting [7]), 100 to 1000 nM; in experiment [5] (setting [8]), 100 to 1000 nM.
Take `C[C@@H]1CN(c2ccc(F)c(C#N)c2)CCN1C(=O)NCCC1(O)CCN(Cc2ccccc2)CC1` [7-11, (2R)-N-[2-(1-benzyl-4-hydroxypiperidin-4-yl)ethyl]-4-(3-cyano-4-fluorophenyl)-2-methylpiperazine-1-carboxamide]: the Ki was > 1000 nM in experiment [1]; > 1000 nM in experiment [2] (setting [6]); < 10 nM in experiment [3]; > 1000 nM in experiment [4] (setting [7]); > 1000 nM in experiment [5] (setting [8]).
`C[C@H]1CN(c2ccc(OC(F)(F)F)cc2)CCN1C(=O)NCCC1CCN(Cc2ccccc2)CC1` [4-10, (2S)-N-[2-(1-benzylpiperidin-4-yl)ethyl]-2-methyl-4-[4-(trifluoromethoxy)phenyl]piperazine-1-carboxamide]: the Ki in experiment [1] is 100 to 1000 nM; in experiment [2] (setting [6]) it was 100 to 1000 nM; in experiment [3], < 10 nM; in experiment [4] (setting [7]), 10 to 100 nM; in experiment [5] (setting [8]), 100 to 1000 nM.
Consider `C[C@@H]1CN(c2ncc(Cl)c(N)n2)CCN1C(=O)NCCC1CCN(Cc2ccccc2)CC1` [5-32, (2R)-4-(4-amino-5-chloropyrimidin-2-yl)-N-[2-(1-benzylpiperidin-4-yl)ethyl]-2-methylpiperazine-1-carboxamide], for which the Ki in experiment [1] was > 1000 nM; in experiment [2] (setting [6]), > 1000 nM; in experiment [3], < 10 nM; in experiment [4] (setting [7]), 10 to 100 nM; in experiment [5] (setting [8]), > 1000 nM.
With `Cc1c(C(=O)NC[C@@H](O)C2CCN(Cc3ccccc3)CC2)cnc2cc(-c3cccc(C(F)(F)F)c3)nn12` [17-5, N-[(2S)-2-(1-benzylpiperidin-4-yl)-2-hydroxyethyl]-7-methyl-2-[3-(trifluoromethyl)phenyl]pyrazolo[1,5-a]pyrimidine-6-carboxamide], the Ki in experiment [1] was > 1000 nM; in experiment [2] (setting [6]) it was > 1000 nM; in experiment [3] it was < 10 nM; in experiment [4] (setting [7]) it was 10 to 100 nM; in experiment [5] (setting [8]) it was 100 to 1000 nM.
On to `C[C@@H]1CN(c2ccc(C#N)c(C(F)(F)F)c2)CCN1C(=O)NCCC1CCN(Cc2ccccc2)CC1` [22-31], for which the Ki in experiment [1] was > 1000 nM; in experiment [2], 100 to 1000 nM; in experiment [3], < 10 nM; in experiment [4], 10 to 100 nM; in experiment [5], 10 to 100 nM.
For `C[C@@H]1CN(c2ncc(C(F)(F)F)cn2)CCN1C(=O)NCCC1CCN(Cc2ccccc2)CC1` [3-9, (2R)-N-[2-(1-benzylpiperidin-4-yl)ethyl]-2-methyl-4-[5-(trifluoromethyl)pyrimidin-2-yl]piperazine-1-carboxamide], the Ki is 100 to 1000 nM in experiment [1]; > 1000 nM in experiment [2] (setting [6]); < 10 nM in experiment [3]; 10 to 100 nM in experiment [4] (setting [7]); 100 to 1000 nM in experiment [5] (setting [8]).
Consider `COc1cc(C#N)cc(N2CCC(C(=O)NCCC3CCN(Cc4ccccc4)CC3)CC2)c1` [10-54, N-[2-(1-benzylpiperidin-4-yl)ethyl]-1-(3-cyano-5-methoxyphenyl)piperidine-4-carboxamide], for which the Ki was > 1000 nM in experiment [1]; > 1000 nM in experiment [2] (setting [6]); < 10 nM in experiment [3]; 10 to 100 nM in experiment [4] (setting [7]); 100 to 1000 nM in experiment [5] (setting [8]).
Consider `O=C(NCCC1CCN(Cc2ccccc2)CC1)C1CCN(c2cc(F)cc(F)c2)CC1` [10-22, N-[2-(1-benzylpiperidin-4-yl)ethyl]-1-(3,5-difluorophenyl)piperidine-4-carboxamide], for which the Ki in experiment [1] is > 1000 nM; in experiment [2] (setting [6]) it was > 1000 nM; in experiment [3] it was < 10 nM; in experiment [4] (setting [7]), 100 to 1000 nM; in experiment [5] (setting [8]) it was > 1000 nM.
In the case of `C[C@@H]1CN(c2ccc(C#N)cc2F)C[C@H](C)N1C(=O)NCCC1CCN(Cc2ccccc2)CC1` [22-3], the Ki in experiment [1] is > 1000 nM; in experiment [2] (setting [6]), > 1000 nM; in experiment [3] it was < 10 nM; in experiment [4] (setting [7]), 100 to 1000 nM; in experiment [5] (setting [8]) it was > 1000 nM.
`C[C@H]1CN(c2ccc(F)c(C#N)c2)CCN1C(=O)NCCC1CCN(Cc2ccccc2)CC1` [4-20, (2S)-N-[2-(1-benzylpiperidin-4-yl)ethyl]-4-(3-cyano-4-fluorophenyl)-2-methylpiperazine-1-carboxamide]: the Ki in experiment [1] is > 1000 nM; in experiment [2] (setting [6]), > 1000 nM; in experiment [3] it was < 10 nM; in experiment [4] (setting [7]) it was 10 to 100 nM; in experiment [5] (setting [8]), 100 to 1000 nM.
With `C[C@@H]1CN(c2nccc(C(F)(F)F)n2)CCN1C(=O)NCCC1CCN(Cc2ccccc2)CC1` [5-8, (2R)-N-[2-(1-benzylpiperidin-4-yl)ethyl]-2-methyl-4-[4-(trifluoromethyl)pyrimidin-2-yl]piperazine-1-carboxamide], the Ki in experiment [1] was 100 to 1000 nM; in experiment [2] (setting [6]) it was > 1000 nM; in experiment [3] it was < 10 nM; in experiment [4] (setting [7]), 10 to 100 nM; in experiment [5] (setting [8]), > 1000 nM.
For `O=C(NCCC1(O)CCN(Cc2ccccc2)CC1)C1CCN(c2ccc(OC(F)(F)F)c(F)c2)CC1` [9-9, N-[2-(1-benzyl-4-hydroxypiperidin-4-yl)ethyl]-1-[3-fluoro-4-(trifluoromethoxy)phenyl]piperidine-4-carboxamide], the Ki in experiment [1] is > 1000 nM; in experiment [2] (setting [6]) it was > 1000 nM; in experiment [3] it was < 10 nM; in experiment [4] (setting [7]), 100 to 1000 nM; in experiment [5] (setting [8]), 100 to 1000 nM.
Consider `C[C@@H]1CN(c2ccc(C#N)c(OC(F)(F)F)c2)CCN1C(=O)NCCC1CCN(Cc2ccccc2)CC1` [22-17], for which the inhibition constant (Ki) is > 1000 nM in experiment [1]; 100 to 1000 nM in experiment [2] (setting [6]); < 10 nM in experiment [3]; 10 to 100 nM in experiment [4] (setting [7]); 100 to 1000 nM in experiment [5] (setting [8]).
`C[C@@H]1CN(c2cc(F)c(Cl)c(F)c2)CCN1C(=O)NCCC1CCN(Cc2ccccc2)CC1` [22-13]: the Ki in experiment [1] was 100 to 1000 nM; in experiment [2] (setting [6]), 100 to 1000 nM; in experiment [3], < 10 nM; in experiment [4] (setting [7]), 10 to 100 nM; in experiment [5] (setting [8]), 100 to 1000 nM.
On to `C[C@@H]1CN(c2cc(F)cc(C#N)c2)CCN1C(=O)NCCC1CCN(Cc2ccccc2)CC1` [3-11, (2R)-N-[2-(1-benzylpiperidin-4-yl)ethyl]-4-(3-cyano-5-fluorophenyl)-2-methylpiperazine-1-carboxamide], for which the Ki is > 1000 nM in experiment [1]; > 1000 nM in experiment [2] (setting [6]); < 10 nM in experiment [3]; 100 to 1000 nM in experiment [4] (setting [7]); > 1000 nM in experiment [5] (setting [8]).
Regarding `C[C@@H]1CN(c2ccc(OC(F)(F)F)cc2F)CCN1C(=O)NCCC1CCN(Cc2ccccc2)CC1` [10-12, (2R)-N-[2-(1-benzylpiperidin-4-yl)ethyl]-4-[2-fluoro-4-(trifluoromethoxy)phenyl]-2-methylpiperazine-1-carboxamide], the Ki is 100 to 1000 nM in experiment [1]; 100 to 1000 nM in experiment [2] (setting [6]); < 10 nM in experiment [3]; 10 to 100 nM in experiment [4] (setting [7]); 100 to 1000 nM in experiment [5] (setting [8]).
For the molecule `C[C@@H]1CN(c2ccc(OC(F)(F)F)c(C#N)c2)CCN1C(=O)NCCC1(O)CCN(Cc2ccccc2)CC1` [3-5, (2R)-N-[2-(1-benzyl-4-hydroxypiperidin-4-yl)ethyl]-4-[3-cyano-4-(trifluoromethoxy)phenyl]-2-methylpiperazine-1-carboxamide], the Ki in experiment [1] was > 1000 nM; in experiment [2] (setting [6]), > 1000 nM; in experiment [3], < 10 nM; in experiment [4] (setting [7]) it was 100 to 1000 nM; in experiment [5] (setting [8]), > 1000 nM.
As to `O=C(NCCC1CCN(Cc2ccccc2)CC1)C1CCN(c2ccc3c(c2)OC(F)(F)O3)CC1` [10-5, N-[2-(1-benzylpiperidin-4-yl)ethyl]-1-(2,2-difluoro-2H-1,3-benzodioxol-5-yl)piperidine-4-carboxamide], the Ki in experiment [1] is > 1000 nM; in experiment [2] (setting [6]) it was > 1000 nM; in experiment [3] it was < 10 nM; in experiment [4] (setting [7]) it was 10 to 100 nM; in experiment [5] (setting [8]) it was 100 to 1000 nM.
Consider `COc1nc(N2C[C@@H](C)N(C(=O)NCCC3CCN(Cc4ccccc4)CC3)[C@@H](C)C2)ncc1C#N` [5-17, (2R,6S)-N-[2-(1-benzylpiperidin-4-yl)ethyl]-4-(5-cyano-4-methoxypyrimidin-2-yl)-2,6-dimethylpiperazine-1-carboxamide], for which the Ki in experiment [1] is 100 to 1000 nM; in experiment [2] (setting [6]), > 1000 nM; in experiment [3], < 10 nM; in experiment [4] (setting [7]) it was 100 to 1000 nM; in experiment [5] (setting [8]), 100 to 1000 nM.
Regarding `C[C@@H]1CN(c2cc(F)c(F)c(Cl)c2)C[C@H](C)N1C(=O)NCCC1CCN(Cc2ccccc2)CC1` [22-7], the inhibitory constant (Ki) is 100 to 1000 nM in experiment [1]; 100 to 1000 nM in experiment [2] (setting [6]); < 10 nM in experiment [3]; 10 to 100 nM in experiment [4] (setting [7]); 100 to 1000 nM in experiment [5] (setting [8]).
